From ChEMBL document CHEMBL1201862, “PubChem BioAssay data set” (2004)
Activity calls are given as the source filed them.

Key:
NADPH oxidase 1 [1] = target: T1, NADPH oxidase 1 (Homo sapiens, UniProt Q9Y5S8); assay: Late-stage luminescence-based cell-based dose response assay to identify inhibitors of NADPH oxidase 1 (NOX1): Purchased analogs 2.; assay type: functional
[2] = target: Neuropeptide Y receptor type 2 (Homo sapiens, UniProt P49146); assay: Fluorescence-based cell-based high-throughput dose response assay for agonists of NPY-Y2. [Related pubchem assays: 1703 (Screening assay (CNGC inhibitors).), 1359 (Screening assay (NPY-Y2 potentiators or agonists).), 1304 (Screening assay (NPY-Y1 potentiators or agonists).), 1710 (Screening assay (NPY-Y2 agonists).), 1791 (Summary AID.)]; assay type: functional
HEK293 = assay: Fluorescence-based counterscreen for potentiators or agonists of NPY-Y2: cell-based high-throughput dose response assay to identify inhibitors of cyclic nucleotide gated ion channel (CNGC) activity. In this assay, the parental HEK293 cell line transfected with a cyclic-nucleotide gated ion channel (CNGC)-based cAMP sensor is used to measure inhibition of isoproterenol-induced CNGC activity by test compound.; assay type: functional; details: Homo sapiens;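 further: stimulus is 1 µM isoproterenol at EC100 plus PDE inhibitor Ro 20-1724 at 25 µM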
[3] = target: Neuropeptide Y receptor type 1 (Homo sapiens, UniProt P25929); assay: Fluorescence-based counterscreen for agonists of NPY-Y2: cell-based high-throughput dose response assay for agonists of NPY-Y1.; assay type: functional
[4] = inhibitors of Vif binding to APOBEC3G peptide, primary screen, biochemical, TR-FRET, GST-Vif 1-94, biotin-A3G peptide, dose response retest (AID 1117319); assay type: functional;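 further: TR-FRET signal of purified GST-Vif binding a biotinylated A3G peptide; inhibitors lower the FRET signal by blocking Vif and A3G binding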
[5] = target: Peroxisome proliferator-activated receptor gamma/Nuclear receptor corepressor 2 (Homo sapiens, UniProt P37231+Q9Y618); assay: Counterscreen for NR2E3 inverse agonists: TR-FRET-based biochemical high throughput dose response assay to identify inverse agonists of the interaction between peroxisome proliferator-activated receptor gamma (PPARg) and nuclear receptor co-repressor 2 (NCOR2).; assay type: functional
[6] = target: Photoreceptor-specific nuclear receptor (Homo sapiens, UniProt Q9Y5X4); assay: NR2E3 inverse agonists, dose response, biochemical, TR-FRET (AID 463256); assay type: functional
[7] = target: G-protein coupled receptor 55 (Homo sapiens, UniProt Q9Y2T6); assay: GPR55 agonists via beta-arrestin recruitment, primary screen, imaging, U2OS cells, beta-arrestin-GFP redistribution (AID 1961); assay type: functional
[8] = HIV-1 Env-mediated cell fusion inhibitors, dose response, CCR5-tropic Env (AID 2279); assay type: functional
[9] = target: Induced myeloid leukemia cell differentiation protein Mcl-1 (Homo sapiens, UniProt Q07820); assay type: functional
[10] = THP-1 cell cytotoxicity, dose response, cytotoxicity control for non-replicating M. tuberculosis project (AID 489025); assay type: functional
[11] = system: Streptococcus sp. 'group A'; assay: growth inhibition of control SK(-) GAS strain, dose response, counter-screen for streptokinase expression inhibitor project, luminescence, kanamycin, BacTiterGlo, confirmation (AID 1900); assay type: functional, organism-based
cells [12] = assay type: functional, cell-based
[13] = HepG2 cell cytotoxicity, dose response, cytotoxicity control for non-replicating M. tuberculosis project (AID 489018); assay type: functional; details: Mycobacterium tuberculosis
cells [14] = assay type: functional, cell-based; remark: listed apart in the source
Streptokinase A = target: T2, Streptokinase A (Streptococcus pyogenes serotype M1, UniProt P10520); assay: S. pyogenes streptokinase expression inhibitors, potency, dose response, plasminogen activation absorbance, OD405 (AID 1914); assay type: functional, Streptococcus pyogenes M1 GAS;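 further: secreted streptokinase activity via plasminogen activation per viability signal from cell pellet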
T2 sequence (P10520 whole entry): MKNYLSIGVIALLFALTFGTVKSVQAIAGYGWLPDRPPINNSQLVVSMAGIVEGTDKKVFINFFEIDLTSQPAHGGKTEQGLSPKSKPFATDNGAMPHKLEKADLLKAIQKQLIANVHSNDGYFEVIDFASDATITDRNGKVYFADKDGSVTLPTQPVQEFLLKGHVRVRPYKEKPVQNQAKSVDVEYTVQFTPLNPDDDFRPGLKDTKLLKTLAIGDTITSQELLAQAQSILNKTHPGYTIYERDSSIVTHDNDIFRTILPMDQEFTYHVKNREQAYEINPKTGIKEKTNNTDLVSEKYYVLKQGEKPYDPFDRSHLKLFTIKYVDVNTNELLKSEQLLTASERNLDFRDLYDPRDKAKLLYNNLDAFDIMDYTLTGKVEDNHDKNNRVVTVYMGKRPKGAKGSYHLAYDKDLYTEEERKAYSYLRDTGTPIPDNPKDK

Streptococcus = assay: Group A Streptococcus viability loss, dose response, counter-screen for streptokinase expression inhibitor project, luminescence, BacTiterGlo (AID 1915); assay type: functional, organism-based;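 further: potency for reduction of bacterial viability or growth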
INS1 = assay: beta cell apoptosis inhibitors, cytokine rescue, dose response, luminescence, retest (AID 449756); assay type: functional, cell-based; details: Rattus norvegicus;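 further: cell death triggered by IL-1 beta plus TNF-alpha plus IFN-gamma mixture; protective hits raise ATP signal compared with cytokine alone wells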
cells [15] = assay type: functional
[16] = Luminescence-based counterscreen assay for KLF5 inhibitors: dose response cell-based high throughput screening assay to identify cytotoxic compounds using the IEC-6 intestinal epithelial cell line. [Related pubchem assays: 1700 (Primary screen.), 1834 (Confirmation screen.), 1858 (Summary AID.), 1905 (Counterscreen.)]; assay type: functional
[17] = Vero E6 cell cytotoxicity, dose response, cytotoxicity control for non-replicating M. tuberculosis project, secondary assay (AID 492998); assay type: functional, VeroE6; details: Vero C1008
[18] = M. tuberculosis growth inhibition, HTS (AID 449762); assay type: functional
[19] = microbe, parasite or virus in culture; assay type: functional; details: Mycobacterium tuberculosis
Estrogen receptor beta [20] = target: T3, Estrogen receptor beta (Homo sapiens, UniProt Q92731);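 further: recombinant ER-beta bound to coactivator SRC1 peptide in presence of estradiol agonist; inhibitors block coactivator peptide binding and lower the FRET signal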
Estrogen receptor beta [21] = target: T3, Estrogen receptor beta; assay: ERβ–SRC-3 coactivator interaction inhibitors, confirmation, orthogonal assay, biochemical, ELISA, streptavidin-HRP readout (AID 1060)
Estrogen receptor = Estrogen receptor (Homo sapiens, UniProt P03372);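 further: potency for inhibiting coactivator peptide recruitment to the receptor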
NADPH oxidase 1 [22] = target: T1, NADPH oxidase 1; assay type: functional, cell-based
[23] = target: Bifunctional protein GlmU (Mycobacterium tuberculosis, UniProt P9WMN3); assay: Inhibitors of Mycobacterial Glucosamine-1-phosphate acetyl transferase (GlmU). Secondary screen.; parameters: species or system Mycobacterium tuberculosis H37Rv
Bifunctional protein GlmU, sequence (P9WMN3 whole entry): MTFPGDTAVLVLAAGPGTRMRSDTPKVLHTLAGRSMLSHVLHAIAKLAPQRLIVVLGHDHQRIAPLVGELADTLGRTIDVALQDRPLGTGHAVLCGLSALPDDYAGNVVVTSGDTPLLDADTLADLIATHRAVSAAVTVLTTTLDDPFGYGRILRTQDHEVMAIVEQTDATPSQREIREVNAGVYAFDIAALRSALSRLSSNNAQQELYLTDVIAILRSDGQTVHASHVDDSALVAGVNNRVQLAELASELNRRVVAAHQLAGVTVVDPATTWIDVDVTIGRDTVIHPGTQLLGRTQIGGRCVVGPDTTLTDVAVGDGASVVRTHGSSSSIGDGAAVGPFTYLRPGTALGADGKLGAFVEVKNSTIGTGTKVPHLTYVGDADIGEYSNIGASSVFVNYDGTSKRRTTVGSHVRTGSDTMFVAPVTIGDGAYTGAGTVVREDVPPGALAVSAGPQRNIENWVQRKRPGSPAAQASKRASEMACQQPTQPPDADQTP

T3 sequence (Q92731 whole entry): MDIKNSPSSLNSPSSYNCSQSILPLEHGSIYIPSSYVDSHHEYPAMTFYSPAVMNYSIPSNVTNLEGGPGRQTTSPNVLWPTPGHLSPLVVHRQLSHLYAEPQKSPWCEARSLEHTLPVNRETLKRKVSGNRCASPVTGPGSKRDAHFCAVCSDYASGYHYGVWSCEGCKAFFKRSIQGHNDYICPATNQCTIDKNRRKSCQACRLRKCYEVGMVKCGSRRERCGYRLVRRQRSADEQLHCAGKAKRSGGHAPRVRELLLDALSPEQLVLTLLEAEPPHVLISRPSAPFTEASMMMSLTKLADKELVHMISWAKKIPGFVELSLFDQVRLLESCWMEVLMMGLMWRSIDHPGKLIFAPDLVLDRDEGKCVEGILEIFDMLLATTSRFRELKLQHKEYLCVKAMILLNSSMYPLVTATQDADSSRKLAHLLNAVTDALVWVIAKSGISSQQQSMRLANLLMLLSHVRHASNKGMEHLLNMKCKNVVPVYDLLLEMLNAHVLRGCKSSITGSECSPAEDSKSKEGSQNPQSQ
Induced myeloid leukemia cell differentiation protein Mcl-1, sequence (Q07820 whole entry): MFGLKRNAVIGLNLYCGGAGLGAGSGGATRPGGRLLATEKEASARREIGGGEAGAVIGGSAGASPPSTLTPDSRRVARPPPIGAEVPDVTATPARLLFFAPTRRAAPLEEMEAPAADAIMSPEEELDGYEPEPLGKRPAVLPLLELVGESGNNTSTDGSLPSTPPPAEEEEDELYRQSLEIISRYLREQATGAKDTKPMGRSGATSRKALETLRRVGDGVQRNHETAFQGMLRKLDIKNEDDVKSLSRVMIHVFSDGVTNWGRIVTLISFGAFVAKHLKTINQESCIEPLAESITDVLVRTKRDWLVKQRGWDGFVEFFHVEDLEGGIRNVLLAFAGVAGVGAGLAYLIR
T1 sequence (Q9Y5S8 whole entry): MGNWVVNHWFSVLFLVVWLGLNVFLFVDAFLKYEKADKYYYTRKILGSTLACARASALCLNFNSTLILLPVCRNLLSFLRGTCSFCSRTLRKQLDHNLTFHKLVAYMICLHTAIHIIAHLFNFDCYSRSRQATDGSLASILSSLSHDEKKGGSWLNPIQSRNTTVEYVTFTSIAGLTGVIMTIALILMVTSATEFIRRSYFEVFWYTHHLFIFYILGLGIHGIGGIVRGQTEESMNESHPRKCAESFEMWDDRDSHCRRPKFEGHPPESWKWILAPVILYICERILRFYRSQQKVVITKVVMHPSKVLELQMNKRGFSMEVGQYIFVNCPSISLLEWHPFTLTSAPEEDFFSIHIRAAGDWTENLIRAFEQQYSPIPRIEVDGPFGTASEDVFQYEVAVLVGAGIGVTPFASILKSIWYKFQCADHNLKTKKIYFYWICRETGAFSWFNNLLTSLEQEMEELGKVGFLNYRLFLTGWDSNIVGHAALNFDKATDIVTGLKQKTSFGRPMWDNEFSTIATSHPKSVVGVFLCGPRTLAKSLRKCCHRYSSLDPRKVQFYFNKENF
Neuropeptide Y receptor type 2, sequence (P49146 whole entry): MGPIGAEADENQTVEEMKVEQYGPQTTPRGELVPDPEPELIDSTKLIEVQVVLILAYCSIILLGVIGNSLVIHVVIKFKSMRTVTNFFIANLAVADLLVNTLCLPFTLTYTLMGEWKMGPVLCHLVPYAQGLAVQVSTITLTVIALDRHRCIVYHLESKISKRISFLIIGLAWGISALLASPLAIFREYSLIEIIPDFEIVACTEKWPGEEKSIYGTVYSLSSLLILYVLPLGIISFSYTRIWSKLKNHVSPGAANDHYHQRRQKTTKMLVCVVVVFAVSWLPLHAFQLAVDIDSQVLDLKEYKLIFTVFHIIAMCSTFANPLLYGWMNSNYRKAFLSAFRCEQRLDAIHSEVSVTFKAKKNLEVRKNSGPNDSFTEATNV
Neuropeptide Y receptor type 1, sequence (P25929 whole entry): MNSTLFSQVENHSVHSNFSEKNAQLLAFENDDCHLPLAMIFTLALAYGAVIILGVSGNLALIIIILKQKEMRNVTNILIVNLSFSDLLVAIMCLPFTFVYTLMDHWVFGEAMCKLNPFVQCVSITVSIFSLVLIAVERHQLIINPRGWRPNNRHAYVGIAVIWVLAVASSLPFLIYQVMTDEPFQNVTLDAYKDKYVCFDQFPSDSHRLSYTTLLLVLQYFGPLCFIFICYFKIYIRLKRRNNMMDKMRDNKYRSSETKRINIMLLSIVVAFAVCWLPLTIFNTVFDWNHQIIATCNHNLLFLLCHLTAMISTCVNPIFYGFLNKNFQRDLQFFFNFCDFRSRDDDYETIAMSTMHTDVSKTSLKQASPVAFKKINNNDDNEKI
Estrogen receptor, sequence (P03372 whole entry): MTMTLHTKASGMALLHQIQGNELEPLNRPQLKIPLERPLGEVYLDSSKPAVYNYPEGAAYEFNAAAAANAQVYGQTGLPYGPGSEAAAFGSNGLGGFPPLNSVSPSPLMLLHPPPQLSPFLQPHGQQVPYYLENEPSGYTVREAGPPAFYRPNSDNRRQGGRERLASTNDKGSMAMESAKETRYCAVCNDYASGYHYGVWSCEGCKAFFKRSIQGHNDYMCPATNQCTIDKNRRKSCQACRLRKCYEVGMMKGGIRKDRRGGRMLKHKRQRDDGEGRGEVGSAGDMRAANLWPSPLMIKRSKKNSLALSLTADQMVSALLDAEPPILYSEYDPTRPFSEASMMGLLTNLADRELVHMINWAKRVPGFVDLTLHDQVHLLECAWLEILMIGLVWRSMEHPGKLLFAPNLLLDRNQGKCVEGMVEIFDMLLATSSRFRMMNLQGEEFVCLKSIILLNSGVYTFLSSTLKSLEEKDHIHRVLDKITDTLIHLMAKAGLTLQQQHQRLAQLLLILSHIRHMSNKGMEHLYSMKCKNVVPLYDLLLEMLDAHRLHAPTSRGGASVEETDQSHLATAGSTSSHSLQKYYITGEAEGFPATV
Photoreceptor-specific nuclear receptor, sequence (Q9Y5X4 whole entry): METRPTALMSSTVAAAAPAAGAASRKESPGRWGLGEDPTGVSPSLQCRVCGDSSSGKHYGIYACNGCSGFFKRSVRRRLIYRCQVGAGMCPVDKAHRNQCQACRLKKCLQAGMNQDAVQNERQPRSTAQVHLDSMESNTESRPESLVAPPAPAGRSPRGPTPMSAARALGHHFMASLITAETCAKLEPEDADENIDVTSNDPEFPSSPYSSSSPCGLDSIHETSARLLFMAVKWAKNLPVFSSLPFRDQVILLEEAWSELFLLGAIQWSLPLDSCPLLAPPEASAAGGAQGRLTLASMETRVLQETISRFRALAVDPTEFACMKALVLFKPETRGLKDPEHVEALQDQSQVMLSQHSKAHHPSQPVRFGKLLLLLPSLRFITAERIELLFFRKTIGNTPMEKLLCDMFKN
G-protein coupled receptor 55, sequence (Q9Y2T6 whole entry, the tested form may be a part): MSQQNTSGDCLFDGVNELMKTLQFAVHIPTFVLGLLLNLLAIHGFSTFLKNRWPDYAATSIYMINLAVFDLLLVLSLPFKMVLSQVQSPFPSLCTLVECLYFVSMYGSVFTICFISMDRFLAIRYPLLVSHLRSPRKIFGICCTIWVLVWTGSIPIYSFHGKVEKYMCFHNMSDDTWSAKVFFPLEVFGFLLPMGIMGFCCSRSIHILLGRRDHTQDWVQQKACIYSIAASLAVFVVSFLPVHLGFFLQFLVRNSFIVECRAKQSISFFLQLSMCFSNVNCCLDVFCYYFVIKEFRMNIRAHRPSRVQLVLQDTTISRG

Compound: O=C(Oc1ccccc1)c1cc2cc([N+](=O)[O-])ccc2s1
- IC50 (NADPH oxidase 1 [1]): > 17 µM (not active)

Compound: c1ccc(CSc2nc3c[nH]cnc-3n2)cc1
- EC50 [2]: > 35.4 µM (not active)
- EC50 (HEK293): > 35.4 µM (not active)
- EC50 [3]: > 35.4 µM (not active)

Compound: COc1ccc(Nc2nc(N)nc(CSC(=S)N3CCN(c4ccccc4)CC3)n2)cc1
- IC50 [4]: > 100 µM (active)

Compound: COc1cccc2sc(NC(=O)c3ccc(Br)s3)nc12
- IC50 [5]: 2.95 µM (active)
- IC50 [6]: 3.41 µM (active)
- EC50 [7]: > 32 µM (inactive)

Compound: COc1cc(/C=C2\SC(=O)N(Cc3ccc(F)cc3)C2=O)cc([N+](=O)[O-])c1O
- IC50 [8]: 45.6 µM (active)
- IC50 [9]: 7.65 µM (active)

Compound: CCOc1cccc(/C=N/NC(=O)c2ccc3c(c2)OCCO3)c1O
- CC50 [10]: 3.18 µM (active)
- EC50 [11]: 1.49 µM (active)
- EC50 (cells [12]): > 350 µM (not active)
- CC50 [13]: 4.3 µM (active)
- EC50 (cells [14]): 50.3 µM (active)
- EC50 (Streptokinase A): 1.11 µM (active)
- EC50 (Streptococcus): 2.77 µM (active)
- AC50 (INS1): 3.01 µM (active)
- IC50 (cells [15]): > 50 µM (active)
- IC50 [16]: 12.5 µM (not active)
- CC50 [17]: 6.58 µM (active)

Compound: COc1ccccc1/C=N/NC(=O)NC12CC3CC(CC(C3)C1)C2
- IC50 [18]: > 100 µM (active)
- CC50 [19]: > 40 µM (active)

Compound: Cc1ccccc1-n1c(SC/C(O)=C(\C#N)c2nc3ccccc3[nH]2)nnc1-c1ccncc1
- IC50 (Estrogen receptor beta [20]): > 50 µM (not active)
- IC50 (Estrogen receptor beta [21]): 0.371 µM (not active)

Compound: CCCCOC(=O)c1cc(-c2ccc(/C=N/n3cnnc3)o2)ccc1Cl
- IC50 (Estrogen receptor): > 50 µM (not active)

Compound: O=C(Nc1ccccc1)Nc1nc(-c2ccccc2)cs1
- IC50 (NADPH oxidase 1 [22]): > 17 µM (not active)

Compound: O=C1OCC2OC(O)C(O)C(O)C2OC(=O)c2cc(O)c(O)c(O)c2-c2c(O)c(O)c3oc(=O)c4c(c(O)c(O)c5oc(=O)c2c3c54)-c2c1cc(O)c(O)c2O (centres undefined)
- IC50 [23]: < 1 µM (active)
- IC50 [9]: 1.56 µM (active)
